Experimental data published in US4923865A, “Substituted 1-(1H-imidazol-4-yl)alkyl-benzamides as anti-ischemics and as alpha-2-adrenergic receptor agonists” (U C B Societe Anonyme, priority 1988, dated 1990).

How the values were obtained:
[1] = test system: cerebral ischemia; assay: Unilateral, multifocal cerebral ischemia in the rat (microsphere embolization); type: in vivo, male Sprague-Dawley SPF rats
Text: (b) Unilateral, multifocal cerebral ischemia in the rat. In awake, male Sprague-Dawley SPF rats, aged from 8 to 9 months, a permanent, unilateral cerebral ischemia (or embolization) is caused by introduction of 2000 microspheres (provided by 3M, St. Paul, U.S.A.; diameter 58±2 μm) into the right carotid stream (A. M. BRALET et al., Stroke, 10, (1979), 34-38; M. LE PONCIN-LAFITTE et al., Pathol. Biol. (Paris), 30, (1982), 289-293) after the permanent ligature of the right pterygopalatine artery (Y. KIYOTA et al., Pharmacol. Biochem. Behav. 24, (1986), 687-692).
The compound to be studied is administered for the first time 30 minutes before, and for the second time 30 minutes after embolization, while the control animals receive only a physiological salt solution. The animals are then allowed to rest. After 6 days of recovery, the surviving animals are measured for:
(1) the residual neurological deficit obtained from the test of posture and gait of the animals (Test A, maximum score: 4 points). This test evaluates:
(a) abnormal positioning of the hind paws (S. IRWIN, Psychophamacologia (Berlin), 13, (1968), 222-257);
(b) contralateral inclination of the body during locomotion;
(c) homolateral longitudinal flexion of the body, and
(d) abnormal gait (B. KOLB et al., loc. cit.).
(2) The sensorimotor functions (spontaneous motility, grasping reflex, placing reactions both visual and by loss of support (Test B, maximum score: 10 points); (C. CAPDEVILLE et al., loc. cit.).
(3) The lateralized sensorimotor response (on the contralateral side) (Test C, maximum score: 3 points). This is evaluated by combining the measurements of visual placing reflex, head orientation relfex towards a lateral sensory stimulus, and the cutaneous plantar reflex (C. CAPDEVILLE et al., loc. cit.; J. F. MARSHALL et al., Science (Washington), 174, (1971), 523-525).
(4) Tactile extinction on the left side (Test D, maximum score: 300 points). By contrast with the other tests mentioned above, for which the deficit is lower when the score is higher, the deficit is here more pronounced when the score approaches 300 (T. SCHALLERT et al., Pharmacol. Biochem. Behav. 16, (1982), 455-462).
On the seventh day of recovery, the edema present in various ipsilateral cerebral structures is also measured (M. LE PONCIN-LAFITTE et al., loc. cit.).
Table IV gives the results obtained in tests A to D for compound A, administered intraperitoneally at the dose of 0.76 μg/kg (3.2 nmoles/kg), i.e. The mean of the neurological scores determined for the whole group of surviving animals of the control group and of the treated group after 6 days of recovery. Also indicated in the Table is the mean variation (in g) of body weight measured on the 7th day of recovery. The statistical significant (P) of the difference between the mean values calculated for the control animals and for the treated animals is evaluated by the Mann-Whitney test.
In Table V, the quantity of water (as an average of the percentage) retained in various ipsilateral cerebral structures in the control animals and in the treated animals surviving at the 7th day after embolization, is indicated.

[2] = biological target: T1, presynaptic α2 -adrenergic receptors (Cavia porcellus, UniProt Q60474); assay: Stimulation of the isolated guinea-pig atria (reduction in tachycardia)
T1 construct: Stimulation of a guinea-pig ileum; from tissue; host or cells: guinea-pig ileum longitudinal muscle strips
T1 sequence (Q60474 1-464): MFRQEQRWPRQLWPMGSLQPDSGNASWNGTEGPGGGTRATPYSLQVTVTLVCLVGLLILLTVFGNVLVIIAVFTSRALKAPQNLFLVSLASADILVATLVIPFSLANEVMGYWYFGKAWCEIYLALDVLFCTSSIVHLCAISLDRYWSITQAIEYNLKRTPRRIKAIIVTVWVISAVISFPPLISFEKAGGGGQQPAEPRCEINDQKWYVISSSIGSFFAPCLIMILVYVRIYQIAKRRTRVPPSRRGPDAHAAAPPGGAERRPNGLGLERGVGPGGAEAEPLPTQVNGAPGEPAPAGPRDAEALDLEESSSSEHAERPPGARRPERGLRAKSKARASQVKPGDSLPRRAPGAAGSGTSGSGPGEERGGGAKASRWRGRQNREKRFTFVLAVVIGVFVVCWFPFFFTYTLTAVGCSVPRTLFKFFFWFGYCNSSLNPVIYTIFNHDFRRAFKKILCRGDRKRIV
Text: (b) Stimulation of the isolated guinea-pig atria. The release of noradrenalin at the level of the nerve endings is mediated by a feedback regulating mechanism through the presynaptic α2 -adrenergic receptors. […] Ed. D. S. DAVIES, J. L. REID, Pitman, London.
The electrical stimulation of the isolated guinea-pig atria induces a release of noradrenalin which results in an increase in the rate of the heart beat (tachycardia). This tachycardia is inhibited by an α2 -agonist such as, for example, clonidine, in a proportion which depends on the dose of the agonist used. The action of the α2 -agonist may be limited in the presence of an α2 -specific antagonist such as α-yohimbine.
The in vitro activity of the compounds of the invention on the presynaptic α2 -adrenergic receptors has been studied on the isolated guinea-pig atria, electrically stimulated according to the method described by I. C. MEDGETT et al., Naunyn-Schmiedeberg's Arch. Pharmacol. 304, (1978), 215-221. The compound to be studied is tested in increasing concentrations ranging from 10^-10 to 10^-3 mole/l. The concentration (IC30 in mole/l) which causes a 30% reduction in the maximum tachycardia obtained initially during the electrical stimulation of the atria in the absence of the compound to be tested, is determined.
On the other hand, in the presence of a concentration of 10^-6 mole/l of α-yohimbine, the concentration of compound A necessary to obtain a reduction of 30% in the tachycardia is greater than 10^-7 mole/l.

Cl.NC(=O)c1cccc(Cc2c[nH]cn2)c1O [A, 2-hydroxyl-3-[(1H-imidazol-4-yl)methyl]-benzamide hydrochloride]
weight variation ([1]; 0.76 μg/kg i.p., 7th day of recovery, control -5.7, P <0.05): +0.8 g | Mean neurological score 6 days after embolization, test C ([1]; 0.76 μg/kg i.p., lateralized sensorimotor response, maximum 3 points, control 1.0, P <0.005): 2.0 | Mean neurological score 6 days after embolization, test A ([1]; 0.76 μg/kg i.p., posture and gait, maximum 4 points, control 1.0, P <0.01): 2.0 | Mean neurological score 6 days after embolization, test B ([1]; 0.76 μg/kg i.p., sensorimotor functions, maximum 10 points, control 7.3, P <0.05): 8.0 | Mean neurological score 6 days after embolization, test D ([1]; 0.76 μg/kg i.p., tactile extinction, maximum 300 points, higher = greater deficit, control 243, P <0.05): 96 | Quantity of water in ipsilateral diencephalon ([1]; 7th day after embolization, control 77.04, P < 0.05): 76.32 average % | Quantity of water in ipsilateral hippocampus ([1]; 7th day after embolization, control 80.20, P < 0.05): 79.79 average % | Quantity of water in ipsilateral cortex ([1]; 7th day after embolization, control 81.33, P < 0.01): 80.36 average % | Quantity of water in ipsilateral corpus striatum ([1]; 7th day after embolization, control 81.57, P < 0.005): 80.05 average % | concentration necessary to obtain a reduction of 30% in the tachycardia ([2]; in the presence of 10^-6 mole/l of α-yohimbine): greater than 10^-7 mole/l | IC30 ([2]; isolated guinea-pig atria, electrical stimulation, read-out: IC30 (30% reduction in the maximum tachycardia)): 900 pM
